Here are results for four compounds from patent US20080221074A1, “Drug Screen and Treatment Method” (priority 2006, published 2008).

Data set [1] concerns osteoblasts and osteocytes. In words: osteoblast and osteocyte apoptosis in vertebral bone of ovariectomized mice (TUNEL). The data set is classed as in vivo, Swiss Webster mice. The text has this: The degree of apoptosis of osteoblasts and osteocytes in murine vertebral bone as a function of estrogen deficiency was examined. Swiss Webster mice (four months old) were ovariectomized. Twenty-eight days later, the animals were sacrificed, vertebrae were isolated, fixed and embedded, and then undecalcified in methacrylate.

Another data set has as its system EAE. In words: PLP-induced EAE, treatment from clinical onset. Conditions: 0.1 mg q.d. po from clinical onset. The class given is in vivo, female SJL mice. On the procedure: The protocol for conducting the EAE animal model was described in (D. Auci et. al., Ann. NY. Acad. Sci. USA, 1051:730-42, 2005). Female SJL mice (6-8 week old, average body weight of 25 g) obtained from Charles-River were kept under standard laboratory conditions (non specific pathogen germ free) with ad libitum food and water and were allowed to adapt one week to their environment before commencing the study. […] EAA was induced with 200 μL of a 1:1 emulsion of 75 μg proteolipid protein (PLP) and 6 mg/mL Mycobacterium tuberculosis H37RA in complete Freund's adjuvant (CFA). The 200 μL injection was divided among four sites that drained into the auxiliary and inguinal lymphnodes. Pertussis toxin was used as a co-adjuvant and was administered i.p. at 200 ng/mouse on day zero and day two post immunization. Groups were treated with 0.1 mg of compound in 100 μL vehicle, or with vehicle alone, q.d. po (oral gavage) starting at clinical onset of disease and continuing through to day 30 post immunization. […] Clinical grading was carried out by an observer unaware of the treatment: 0=no illness, 1=flaccid tail, 2=moderate paraparesis, 3=severe paraparesis, 4=moribund state, 5=death.

Data set [2] relates to human MG-63 osteosarcoma cell line. In words: reversal of dexamethasone effects in MG-63 osteoblasts. The data set is classed as cell-based. Conditions: 30 nM dexamethasone; compound concentration stated with each value (17α-ethynyl triol: 1 nM).
Data set [3] can be described thus: degree of sulfation and glucuronidation (other protocols). The class given is in vitro ADME. Conditions: compared to diols. The text has this:
Despite that, the compound androst-5-ene-3β,7β,16α,17β-tetrol was active as described above when administered orally to mice in a diabetes treatment model. […] This activity may have arisen at least partly from the low metabolism of tetrol compounds in vivo.

The test system of data set [4] is LPS-induced acute lung inflammation. In words: LPS-induced lung injury. The class given is in vivo, C57/BL6 mice. Conditions: 40 mg/Kg orally; 48 h after LPS.
Data set [5] relates to insulin sensitivity in db/db diabetic mice. Briefly: hyperinsulinemic-euglycemic clamp. The data set is classed as in vivo. The protocol: Glucose lowering in 8 week old db/db diabetic mice. The hyperinsulinemic-euglycemic clamp protocol was conducted to measure insulin sensitivity in vivo. In this procedure, insulin was administered to raise the insulin concentration while glucose was infused to maintain euglycemia or a fixed, normal blood glucose level (about 180 mg/dL). […] The objective of this protocol was to investigate characterize the capacity of 17α-ethynylandrost-5-ene-3β,7β,17β-triol and androst-5-ene-3β,7β,16α,17β-tetrol to ameliorate systemic insulin resistance and improve whole body glucose disposal in the hyperinsulinemic-euglycemic clamp model. The degree of skeletal muscle and hepatic insulin sensitivity and tissue specific glucose uptake were also assessed. The animals were dosed daily by oral gavage for 14 days. On Day 10 of treatment catheters were implanted in the carotid artery and jugular vein. On the day of the clamp (day 14) the compound was administered at 7:30 am.
Body weight and glucose concentration were assessed on day 0, 7 and day 14 of treatment. On day 14 a euglycemic hyperinsulinemic clamp was performed. Food was removed at 7:30 am at 10:30 a primed continuous infusion of [3-^3H]-glucose (0.05 μCi/min). A baseline blood sample was taken at 12:50 (−10 min) and at 1:00 (0 min) a euglycemic hyperinsulinemic clamp was initiated by administering 10 mU /kg/min of insulin. Glucose was infused at a variable rate to clamp the glucose concentration at ˜180 mg/dl. A bolus of [^14C]-2deoxyglucose was given at the end of the study to assess tissue specific glucose uptake. Plasma ^14C 2-deoxyglucose was assessed at 122, 125, 130, 135, 145 min. […]
Analysis was conducted as follows. Plasma samples were deproteinized with Ba(OH)2 (0.3 N) and ZnSO4 (0.3 N), dried and radioactivity was assessed on scintillation counter (Packard TRICARB 2900 TR, Meriden, Conn.). […] One supernatant was directly counted to determine radioactivity from both [14C] […] A second aliquot was treated with Ba(OH)2 and ZnSO4 to remove ^14C DGP and any tracer incorporated into glycogen and then counted to determine radioactivity from free [^14C]DG(2). [^14C]DGP was calculated as the difference between the two aliquots. […] Rg, an index of tissue specific glucose uptake was calculated as previously described (E.W. Kraegen et al., Am. J. Physiol., 248:E353-E362, 1985). Whole body glucose turnover was calculated as the ratio of the ^3H glucose infusion rate (dpm/kg/min) and arterial plasma glucose specific activity (dpm/mg). Endogenous glucose production was calculated as the difference between the whole body glucose turnover and the exogenous glucose infusion rate (R. N. Bergman et al., Endocr. Rev., 6:45-86, 1985).

For another data set, the target named is estrogen receptor-α (Homo sapiens, UniProt P03372). Briefly: interaction with sex hormone receptor. The data set is classed as binding.
Another data set concerns the target estrogen receptor-β (Homo sapiens, UniProt Q92731). Briefly: interaction with sex hormone receptor. The class given is binding.
The test system of data set [6] is bone marrow-derived mast cells (BMMC). In words: mast cell stimulus-coupled degranulation (β-glucuronidase release). The class given is cell-based, Balb/C mice. Particulars: no stimulus. On the procedure:
In another protocol, a population of mast cells was cultivated from murine bone marrow as follows. Briefly, bone marrows from Balb/C mice were flushed from the femur using PBS and a 27 g needle. The cells were cultured in a mixture of ⅔ RPMI-1640 with 19% FBS and cells that secreted IL-3. The bone marrow cells were allowed to differentiate for 18-25 days in the IL-3-containing mixture before being used for experiments. Bone marrow cells cultured in this manner have a phenotype similar to mucosal mast cells and are referred to as bone marrow-derived mast cells (BMMC).
The homogeneity of the in vitro propagated mast cells was checked by conventional flow cytometry techniques and staining for cell-type specific markers. Between days 14 and 21 of propagation, mature mast cells were harvested and prepared for the test cultures. The objective was to assess of the effect of compounds such as dehydroepiandrosterone on mast cell stimulus-coupled degranulation. Prepared mast cells were dispensed into test culture wells at a density of 1×10^7 cells/mL. In control cultures, mast cells were induced to degranulate after cross linking of IgE receptors with IgE antigen-antibody complexes. […] There was no detectable degranulation of mast cells as measured by release of β-glucuronidase from cytosolic storage granules of the cells in the absence of the stimulus. […]

estrogen receptor-β, sequence (Q92731 whole entry, species assumed): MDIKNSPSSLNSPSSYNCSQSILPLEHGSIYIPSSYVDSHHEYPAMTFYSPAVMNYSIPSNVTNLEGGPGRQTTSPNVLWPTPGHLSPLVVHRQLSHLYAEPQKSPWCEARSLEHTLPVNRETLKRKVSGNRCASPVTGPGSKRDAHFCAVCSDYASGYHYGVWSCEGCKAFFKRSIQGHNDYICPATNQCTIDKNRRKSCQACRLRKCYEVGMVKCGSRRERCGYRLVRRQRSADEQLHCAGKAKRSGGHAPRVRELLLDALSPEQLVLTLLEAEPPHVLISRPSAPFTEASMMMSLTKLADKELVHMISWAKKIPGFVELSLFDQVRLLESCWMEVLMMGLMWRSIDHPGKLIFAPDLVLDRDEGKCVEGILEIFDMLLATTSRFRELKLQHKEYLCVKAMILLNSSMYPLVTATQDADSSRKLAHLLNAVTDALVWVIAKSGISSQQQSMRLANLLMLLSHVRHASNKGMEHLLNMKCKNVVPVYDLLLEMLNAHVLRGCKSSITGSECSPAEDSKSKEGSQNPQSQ
estrogen receptor-α, sequence (P03372 whole entry): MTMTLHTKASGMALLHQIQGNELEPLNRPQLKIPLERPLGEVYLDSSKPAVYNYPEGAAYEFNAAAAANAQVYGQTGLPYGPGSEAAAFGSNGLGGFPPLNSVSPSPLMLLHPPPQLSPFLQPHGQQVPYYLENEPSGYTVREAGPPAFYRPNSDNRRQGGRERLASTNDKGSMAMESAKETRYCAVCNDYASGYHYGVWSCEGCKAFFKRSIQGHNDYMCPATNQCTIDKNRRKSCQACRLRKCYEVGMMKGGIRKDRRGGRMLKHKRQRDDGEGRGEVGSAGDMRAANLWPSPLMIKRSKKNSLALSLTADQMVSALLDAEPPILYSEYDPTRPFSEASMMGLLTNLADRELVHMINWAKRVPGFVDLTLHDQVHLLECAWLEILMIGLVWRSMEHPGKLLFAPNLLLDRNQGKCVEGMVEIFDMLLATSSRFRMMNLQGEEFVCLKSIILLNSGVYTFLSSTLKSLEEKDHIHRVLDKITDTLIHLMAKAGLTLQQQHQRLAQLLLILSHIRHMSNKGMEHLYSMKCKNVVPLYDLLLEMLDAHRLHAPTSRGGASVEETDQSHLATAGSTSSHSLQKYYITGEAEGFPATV

With `C[C@]12CC[C@H]3[C@@H](CCC4=C[C@H](O)CC[C@@H]43)[C@@H]1CC[C@@H]2O` [4-estrene-3α,17β-diol], the “osteoblast and osteocyte apoptosis” value in data set [1] was “reduce apoptosis”.

Take `C[C@]12CC[C@H]3[C@@H]([C@@H](O)C=C4C[C@H](O)CC[C@@]43C)[C@@H]1C[C@@H](O)[C@@H]2O` [androst-5-ene-3α,7β,16α,17β-tetrol]: the “course of EAE compared to vehicle-treated mice” value with EAE is “very similar to that observed in the vehicle-treated mice”. Further, the “reversal of the decrease in osteoprotegerin synthesis” value in [2] is reported as “normal osteoprotegerin levels at 10 nM”. In data set [3], the “degree of sulfation and degree of glucuronidation” value was “low”.

For the compound `C[C@]12CC[C@H]3[C@@H]([C@@H](O)C=C4C[C@@H](O)CC[C@@]43C)[C@@H]1C[C@@H](O)[C@@H]2O` [androst-5-ene-3β,7β,16α,17β-tetrol], in data set [4], the “IL-6 level in BAL vs vehicle” value is given as “reduced levels”, the “MPO level vs vehicle” value is listed as “reduced levels” and the “TNFα level in BAL vs vehicle” value is recorded as “reduced levels”. Moreover, the “glucose uptake in the gastrocnemius muscle” value in data set [5] (^14C-2-deoxyglucose, p<0.05) is given as “more effective”. Besides, in data set [5] (oral gavage 14 days, insulin 10 mU/kg/min), the “glucose infusion rate compared to vehicle control” value is listed as “increased the glucose infusion rate”. The “course of EAE compared to vehicle-treated mice” value with EAE was “significantly improved course of EAE”. The “reversal of the decrease in osteoprotegerin synthesis” value in [2] was “normal osteoprotegerin levels at 0.1 μM”. Also, on estrogen receptor-α, the “interaction with estrogen receptor-α” value is on record as “do not interact”. The “interaction with estrogen receptor-β” value on estrogen receptor-β is “do not interact”. Further, the “degree of sulfation and degree of glucuronidation” value in data set [3] was “low”.

On to `C[C@]12CC[C@H](O)CC1=CC[C@@H]1[C@@H]2CC[C@]2(C)C(=O)CC[C@@H]12` [dehydroepiandrosterone], for which the “degranulation with compound alone” value in data set [6] is “no measurable degranulation”.
